Data taken from ChEMBL document CHEMBL5303573, “Mapping human microbiome drug metabolism by gut bacteria and their genes” (Nature, 2019).

Columns and labels:
[1] = bacteroides fragilis, 12 h, 2 µM
Description: The drug is tested on Bacteroides fragilis strain: 3397 (T10) for biotransformation. The drug concentrations were measured before and after a 12-h incubation by liquid-chromatography-coupled mass spectrometry (LC–MS)

[2] = The drug is tested on Ruminococcus lactaris strain: ATCC29176 for biotransformation. The drug concentrations were measured before and after a 12-h incubation by liquid-chromatography-coupled mass spectrometry (LC–MS); conditions: 2 µM
[3] = The drug is tested on Bacteroides vulgatus strain: ATCC8482 for biotransformation. The drug concentrations were measured before and after a 12-h incubation by liquid-chromatography-coupled mass spectrometry (LC–MS); conditions: phocaeicola vulgatus, 2 µM
[4] = The drug is tested on Collinsella aerofaciens strain: ATCC25986 for biotransformation. The drug concentrations were measured before and after a 12-h incubation by liquid-chromatography-coupled mass spectrometry (LC–MS); conditions: 2 µM
[5] = The drug is tested on Eubacterium rectale strain: ATCC33656 for biotransformation. The drug concentrations were measured before and after a 12-h incubation by liquid-chromatography-coupled mass spectrometry (LC–MS); conditions: agathobacter rectalis, 2 µM
[6] = The drug is tested on Parabacteroides merdae strain: ATCC43184 for biotransformation. The drug concentrations were measured before and after a 12-h incubation by liquid-chromatography-coupled mass spectrometry (LC–MS); conditions: 2 µM
[7] = parabacteroides johnsonii, 12 h, 2 µM
Description: The drug is tested on Parabacteroides johnsonii strain: DSM18315 for biotransformation. The drug concentrations were measured before and after a 12-h incubation by liquid-chromatography-coupled mass spectrometry (LC–MS)

[8] = The drug is tested on Ruminococcus gnavus strain: ATCC29149 for biotransformation. The drug concentrations were measured before and after a 12-h incubation by liquid-chromatography-coupled mass spectrometry (LC–MS); conditions: mediterraneibacter gnavus, 2 µM
[9] = The drug is tested on Subdoligranulum variabile strain: DSM15176 for biotransformation. The drug concentrations were measured before and after a 12-h incubation by liquid-chromatography-coupled mass spectrometry (LC–MS); conditions: 2 µM
[10] = enterocloster bolteae, 12 h, 2 µM
Description: The drug is tested on Clostridium bolteae strain: ATCCBAA-613 for biotransformation. The drug concentrations were measured before and after a 12-h incubation by liquid-chromatography-coupled mass spectrometry (LC–MS)

[11] = bacteroides fragilis, 12 h, 2 µM; remark: listed apart in the source
Description: The drug is tested on Bacteroides fragilis strain: NCTC 9343 for biotransformation. The drug concentrations were measured before and after a 12-h incubation by liquid-chromatography-coupled mass spectrometry (LC–MS)

[12] = victivallis vadensis, 12 h, 2 µM
Description: The drug is tested on Victivallis vadensis strain: ATCC BAA-548 for biotransformation. The drug concentrations were measured before and after a 12-h incubation by liquid-chromatography-coupled mass spectrometry (LC–MS)

[13] = The drug is tested on Alistipes indistinctus strain: DSM22520 for biotransformation. The drug concentrations were measured before and after a 12-h incubation by liquid-chromatography-coupled mass spectrometry (LC–MS); conditions: 2 µM
[14] = segatella copri, 12 h, 2 µM
Description: The drug is tested on Prevotella copri strain: DSM18205 for biotransformation. The drug concentrations were measured before and after a 12-h incubation by liquid-chromatography-coupled mass spectrometry (LC–MS)

[15] = The drug is tested on Dorea formicigenerans strain: ATCC27755 for biotransformation. The drug concentrations were measured before and after a 12-h incubation by liquid-chromatography-coupled mass spectrometry (LC–MS); conditions: 2 µM
[16] = The drug is tested on Clostridium sporogenes strain: ATCC15579 for biotransformation. The drug concentrations were measured before and after a 12-h incubation by liquid-chromatography-coupled mass spectrometry (LC–MS); conditions: 2 µM
[17] = The drug is tested on Bacteroides fragilis strain: HMW615 for biotransformation. The drug concentrations were measured before and after a 12-h incubation by liquid-chromatography-coupled mass spectrometry (LC–MS); conditions: 2 µM
[18] = The drug is tested on Blautia hansenii strain: DSM20583 for biotransformation. The drug concentrations were measured before and after a 12-h incubation by liquid-chromatography-coupled mass spectrometry (LC–MS); conditions: 2 µM
[19] = roseburia intestinalis, 12 h, 2 µM
Description: The drug is tested on Roseburia intestinalis strain: L1-82 for biotransformation. The drug concentrations were measured before and after a 12-h incubation by liquid-chromatography-coupled mass spectrometry (LC–MS)

[20] = The drug is tested on Providencia stuartii strain: ATCC25827 for biotransformation. The drug concentrations were measured before and after a 12-h incubation by liquid-chromatography-coupled mass spectrometry (LC–MS); conditions: 2 µM

SMILES	Bacterial Biotransformation [1]	Bacterial Biotransformation [2]	Bacterial Biotransformation [3]	Bacterial Biotransformation [4]	Bacterial Biotransformation [5]	Bacterial Biotransformation [6]	Bacterial Biotransformation [7]	Bacterial Biotransformation [8]	Bacterial Biotransformation [9]	Bacterial Biotransformation [10]	Bacterial Biotransformation [11]	Bacterial Biotransformation [12]	Bacterial Biotransformation [13]	Bacterial Biotransformation [14]	Bacterial Biotransformation [15]	Bacterial Biotransformation [16]	Bacterial Biotransformation [17]	Bacterial Biotransformation [18]	Bacterial Biotransformation [19]	Bacterial Biotransformation [20]
CN1CCc2cccc3c2[C@H]1Cc1ccc(O)c(O)c1-3 [APOMORPHINE]	Compound NOT metabolized	Compound NOT metabolized	Compound NOT metabolized	Compound NOT metabolized	Compound NOT metabolized	Compound NOT metabolized	Compound NOT metabolized	Compound NOT metabolized	Compound NOT metabolized	Compound NOT metabolized	Compound NOT metabolized	Compound NOT metabolized	Compound NOT metabolized	Compound NOT metabolized	Compound NOT metabolized	Compound NOT metabolized	Compound NOT metabolized	Compound NOT metabolized	Compound NOT metabolized	Compound NOT metabolized
C[C@@H]1CC[C@H]2[C@@H](C)C(=O)O[C@@H]3O[C@@]4(C)CC[C@@H]1[C@]32OO4 [ARTEMISININ]	Compound metabolized	Compound metabolized	Compound metabolized	Compound metabolized	Compound metabolized	Compound metabolized	Compound metabolized	Compound metabolized	Compound metabolized	Compound metabolized	Compound metabolized	Compound metabolized	Compound metabolized	Compound metabolized	Compound metabolized	Compound metabolized	Compound metabolized	Compound metabolized	Compound metabolized	Compound metabolized
CC(C)C[C@H]1C(=O)N2CCC[C@H]2[C@]2(O)O[C@](NC(=O)[C@@H]3C=C4c5cccc6[nH]c(Br)c(c56)C[C@H]4N(C)C3)(C(C)C)C(=O)N12.CS(=O)(=O)O [BROMOCRIPTINE MESYLATE]	Compound metabolized	Compound metabolized	Compound metabolized	Compound metabolized	Compound metabolized	Compound metabolized	Compound metabolized	Compound metabolized	Compound metabolized	Compound metabolized	Compound metabolized	Compound metabolized	Compound metabolized	Compound metabolized	Compound metabolized	Compound metabolized	Compound metabolized	Compound metabolized	Compound metabolized	Compound metabolized
COc1ccccc1OCCNCC(O)COc1cccc2[nH]c3ccccc3c12 (stereo not given) [CARVEDILOL]	Compound NOT metabolized	Compound metabolized	Compound metabolized	Compound metabolized	Compound NOT metabolized	Compound metabolized	Compound metabolized	Compound NOT metabolized	Compound NOT metabolized	Compound NOT metabolized	Compound metabolized	Compound NOT metabolized	Compound metabolized	Compound metabolized	Compound NOT metabolized	Compound metabolized	Compound metabolized	Compound metabolized	Compound NOT metabolized	Compound metabolized

Second part, the compound after the results:

Bacterial Biotransformation [1]	Bacterial Biotransformation [2]	Bacterial Biotransformation [3]	Bacterial Biotransformation [4]	Bacterial Biotransformation [5]	Bacterial Biotransformation [6]	Bacterial Biotransformation [7]	Bacterial Biotransformation [8]	Bacterial Biotransformation [9]	Bacterial Biotransformation [10]	Bacterial Biotransformation [11]	Bacterial Biotransformation [12]	Bacterial Biotransformation [13]	Bacterial Biotransformation [14]	Bacterial Biotransformation [15]	Bacterial Biotransformation [16]	Bacterial Biotransformation [17]	Bacterial Biotransformation [18]	Bacterial Biotransformation [19]	Bacterial Biotransformation [20]	SMILES
Compound metabolized	Compound metabolized	Compound metabolized	Compound metabolized	Compound metabolized	Compound metabolized	Compound metabolized	Compound metabolized	Compound metabolized	Compound metabolized	Compound metabolized	Compound metabolized	Compound metabolized	Compound metabolized	Compound metabolized	Compound metabolized	Compound metabolized	Compound metabolized	Compound metabolized	Compound metabolized	CC(=O)Oc1ccc(C(c2ccc(OC(C)=O)cc2)c2ccccn2)cc1 [BISACODYL]
Compound metabolized	Compound NOT metabolized	Compound metabolized	Compound metabolized	Compound NOT metabolized	Compound metabolized	Compound metabolized	Compound metabolized	Compound metabolized	Compound metabolized	Compound metabolized	Compound metabolized	Compound metabolized	Compound metabolized	Compound metabolized	Compound metabolized	Compound NOT metabolized	Compound metabolized	Compound metabolized	Compound metabolized	CCN(CC)CCOCCOC(=O)C1(c2ccccc2)CCCC1.O=C(O)CC(O)(CC(=O)O)C(=O)O [CARBETAPENTANE CITRATE]
Compound metabolized	Compound metabolized	Compound metabolized	Compound metabolized	Compound metabolized	Compound metabolized	Compound metabolized	Compound metabolized	Compound metabolized	Compound metabolized	Compound metabolized	Compound metabolized	Compound metabolized	Compound metabolized	Compound metabolized	Compound metabolized	Compound metabolized	Compound metabolized	Compound metabolized	Compound metabolized	C#C[C@]1(O)CC[C@H]2[C@@H]3CCC4=Cc5oncc5C[C@]4(C)[C@H]3CC[C@@]21C [DANAZOL]
Compound metabolized	Compound metabolized	Compound metabolized	Compound metabolized	Compound metabolized	Compound metabolized	Compound metabolized	Compound metabolized	Compound metabolized	Compound metabolized	Compound metabolized	Compound metabolized	Compound metabolized	Compound metabolized	Compound metabolized	Compound metabolized	Compound metabolized	Compound metabolized	Compound metabolized	Compound metabolized	CC(=O)OCC(=O)[C@@]12N=C(C)O[C@@H]1C[C@H]1[C@@H]3CCC4=CC(=O)C=C[C@]4(C)[C@H]3[C@@H](O)C[C@@]12C [DEFLAZACORT]
